Results taken from patent publication US11718637B2, “Prodrugs of 4′-C-substituted-2-halo-2′- deoxyadenosine nucleosides and methods of making and using the same” (Gilead Sciences, Inc., priority 2020, dated 2023).
Converted amounts (≈) assume the structure as drawn. Where two headings read alike, the source gives them in different places.

How the values were obtained:
[1] = Kinetic solubility analysis (CLND); format: physicochemical; settings: 24.2 °C, kinetic from dmso stock, from DMSO stocks, 1.0% DMSO, 24-hour incubation at ambient temperature, medium (0.1N HCl or PBS 7.4) not stated
Description: Kinetic Solubility Analysis (CLND)
0.1N HCl: Hydrochloric acid, 0.1N standardized solution.
1×PBS, 7.4: Phosphate Buffered Saline solution 10×, PBS 50 mL was added to approximately 450 mL HPLC grade H2O. The volume of the solution was then adjusted to 500 mL for a total dilution factor of 1:10 and a final PBS concentration of 1×. The pH of the final solution was measured and found to be 7.4.
Kinetic Solubility from DMSO Stocks: 100-fold dilutions of each DMSO stock solution were prepared in singleton by combining 3 μL of DMSO stock with 297 μL of the appropriate media in a Millipore solubility filter plate with a […] polycarbonate filter membrane using Hamilton Starlet liquid handling. The final DMSO concentration is 1.0% and maximum theoretical compound concentration is 100 μM (assuming stock concentration of 10 mM). The filter plate was sealed. Following 24-hour incubation at ambient temperature (24.2-27.5° C.), the samples were vacuum filtered and the filtrates were collected in a 96 well polypropylene plate for analysis. The collection plate was sealed for analysis.
Filtrates were injected into the nitrogen detector for quantification. The results are reported here in μM.
Calculation of Results: The equimolar nitrogen response of the detector was calibrated using standards which spanned the dynamic range of the instrument from […] nitrogen. The filtrates were quantified with respect to this calibration curve. The calculated solubility values were corrected for background nitrogen present in the DMSO and the media used to prepare the samples. All reported values for compounds containing adjacent nitrogen atoms in a ring structure should be increased by ˜25%. […] The solubility results presented assume that the samples were free of nitrogen containing impurities and were stable under the assay conditions.

HIV-1 (IIIB) = assay: Antiviral assay in MT-4 cells; format: cell-based
Description: (§1) Compounds were tested in a high-throughput 384-well assay format for their ability to inhibit the replication of HIV-1 (IIIB) in MT-4 cells. Compounds were serially diluted (1:3) in DMSO on 384-well polypropylene plates and further diluted 200-fold into complete RPMI media (10% FBS, 1% P/S) using the Biotek Micro Flow and Labcyte ECHO acoustic dispenser. Each plate contained up to 8 test compounds, with negative (No Drug Control) and 5 μM AZT positive controls. MT-4 cells were pre-infected with 10 μL of either RPMI (mock-infected) or a fresh 1:250 dilution of HIV-1 IIIB concentrated virus stock. Infected and uninfected MT-4 cells were further diluted in complete RPMI media and added to each plate using a Micro Flow dispenser. After 5 days incubation in a humidified and temperature-controlled incubator (37° C.), Cell Titer Glo (Promega) was added to the assay plates and chemiluminescence read using an Envision plate-reader. EC50 values were defined as the compound concentration that causes a 50% decrease in luminescence signal, and were calculated using a sigmoidal dose-response model to generate curve fits.

[2] = Cytotoxicity assay in MT-4 cells; format: cell-based; settings: human; uninfected MT-4 cells, 5 days incubation, Cell Titer Glo
Description: as §1, with “fits. Assays were performed as above except uninfected MT-4 cells were added to each well containing test compound. In addition, 10 μM puromycin was added to the last column of each assay plate to assess a base level of cytotoxicity.” for “fits.”

[3] = Human immunodeficiency virus 1, MT4, 120 h, HIV-1 IIIB replication in MT-4 cells, 5 days incubation, Cell Titer Glo, read-out: EC50

| solubility kinetic at 24 h [1] | EC50 (HIV-1 (IIIB); [3]) | Compound | CC50 at 5 days [2] | EC50 (HIV-1 (IIIB); Human immunodeficiency virus 1, IIIB, MT4, 120 h) |
| --- | --- | --- | --- | --- |
| 2 µM (≈ 2.08 µg/mL) | > 0.5 µM | C#C[C@]1(COC(=O)c2ccccc2COC(=O)CCCCCCCCCCCCCCC)O[C@@H](n2cnc3c(N)nc(F)nc32)C[C@@H]1OC(=O)c1ccccc1COC(=O)CCCCCCCCCCCCCCC [Compound 7, (2R,3S,5R)-5-(6-amino-2-fluoro-9H-purin-9-yl)-2-ethynyl-2-(((2-((palmitoyloxy)methyl)benzoyl)oxy)methyl)tetrahydrofuran-3-yl 2-((palmitoyloxy)methyl)benzoate] | > 50 µM |  |
| < 1 µM | 0.029 µM | C#C[C@]1(CO)O[C@@H](n2cnc3c(N)nc(F)nc32)C[C@@H]1OC(=O)c1ccccc1COC(=O)CCCCCCCCCCCCCCC [Compound 6, (2R,3S,5R)-5-(6-amino-2-fluoro-4,5-dihydro-9H-purin-9-yl)-2-ethynyl-2-(hydroxymethyl)tetrahydrofuran-3-yl 2-((palmitoyloxy)methyl)benzoate] | > 50 µM |  |
| < 1 µM | 0.007 µM | C#C[C@]1(COC(=O)CCCCCCCCCCCCCCCCC)O[C@@H](n2cnc3c(N)nc(F)nc32)C[C@@H]1O [Compound 11, ((2R,3S,5R)-5-(6-amino-2-fluoro-9H-purin-9-yl)-2-ethynyl-3-hydroxytetrahydrofuran-2-yl)methyl stearate] | > 41.5 µM |  |
| < 1 µM | 0.003 µM | C#C[C@]1(COC(=O)CCCCCCCCCCCCC)O[C@@H](n2cnc3c(N)nc(F)nc32)C[C@@H]1O [Compound 8, ((2R,3S,5R)-5-(6-amino-2-fluoro-9H-purin-9-yl)-2-ethynyl-3-hydroxytetrahydrofuran-2-yl)methyl tetradecanoate] | > 20.2 µM |  |
|  |  | C#C[C@]1(CO[P@@](=O)(N[C@@H](C)C(=O)OCC(CC)CC)Oc2ccccc2)O[C@@H](n2cnc3c(N)nc(F)nc32)C[C@@H]1O (single isomer, unassigned) [Compound 4] |  | 0.008 µM |
| < 1 µM | 0.007 µM | C#C[C@]1(COC(=O)CCCCCC)O[C@@H](n2cnc3c(N)nc(F)nc32)C[C@@H]1OC(=O)CCCCCC [Compound 17, (2R,3S,5R)-5-(6-amino-2-fluoro-9H-purin-9-yl)-2-ethynyl-2-((heptanoyloxy)methyl)tetrahydrofuran-3-yl heptanoate] | > 20.9 µM |  |
| 1.2 µM (≈ 0.64 µg/mL) | 0.07 µM | C#C[C@]1(CO)O[C@@H](n2cnc3c(NC(=O)OCCCCCCCCCCCCCC)nc(F)nc32)C[C@@H]1O [Compound 2, Tetradecyl (9-((2R,4S,5R)-5-ethynyl-4-hydroxy-5-(hydroxymethyl)tetrahydrofuran-2-yl)-2-fluoro-9H-purin-6-yl)carbamate] | 13.4 µM |  |
|  | 0.06 µM | C#C[C@]1(CO)O[C@@H](n2cnc3c(NC(=O)OCCCCCCCCCCCCCCCC)nc(F)nc32)C[C@@H]1O [Compound 3, Hexadecyl (9-((2R,4S,5R)-5-ethynyl-4-hydroxy-5-(hydroxymethyl)tetrahydrofuran-2-yl)-2-fluoro-9H-purin-6-yl)carbamate] | 11.8 µM |  |
| 1.5 µM (≈ 0.945 µg/mL) | 0.02 µM | C#C[C@]1(COC(=O)CCCCCC)O[C@@H](n2cnc3c(NC(=O)CCCCCC)nc(F)nc32)C[C@@H]1OC(=O)CCCCCC [Compound 18, (2R,3S,5R)-2-ethynyl-5-(2-fluoro-6-heptanamido-9H-purin-9-yl)-2-((heptanoyloxy)methyl)tetrahydrofuran-3-yl heptanoate-3-yl 2-((palmitoyloxy)methyl)benzoate] | > 10.1 µM |  |
| < 1 µM | 0.004 µM | C#C[C@]1(CO)O[C@@H](n2cnc3c(N)nc(F)nc32)C[C@@H]1OC(=O)CCCCCCCCCCCCC [Compound 9, (2R,3S,5R)-5-(6-amino-2-fluoro-9H-purin-9-yl)-2-ethynyl-2-(hydroxymethyl)tetrahydrofuran-3-yl tetradecanoate] | > 23 µM |  |
| < 1 µM | 0.006 µM | C#C[C@]1(COC(=O)OCCCCCCCCCCCC)O[C@@H](n2cnc3c(N)nc(F)nc32)C[C@@H]1O [Compound 12, ((2R,3S,5R)-5-(6-amino-2-fluoro-9H-purin-9-yl)-2-ethynyl-3-hydroxytetrahydrofuran-2-yl)methyl dodecyl carbonate] | 17 µM |  |
| < 1 µM | > 0.5 µM | C#C[C@]1(COC(=O)OCCCCCCCCCCCC)O[C@@H](n2cnc3c(N)nc(F)nc32)C[C@@H]1OC(=O)OCCCCCCCCCCCC [Compound 13, ((2R,3S,5R)-5-(6-amino-2-fluoro-9H-purin-9-yl)-3-(((dodecyloxy)carbonyl)oxy)-2-ethynyltetrahydrofuran-2-yl)methyl dodecyl carbonate] | 5.5 µM |  |
| < 1 µM | 0.008 µM | C#C[C@]1(COC(=O)c2ccccc2COC(=O)CCCCCCCCCCCCCCC)O[C@@H](n2cnc3c(N)nc(F)nc32)C[C@@H]1O [Compound 5] | > 50 µM |  |
| < 1 µM | > 0.5 µM | C#C[C@]1(COC(=O)CCCCCCCCCCCCC)O[C@@H](n2cnc3c(N)nc(F)nc32)C[C@@H]1OC(=O)CCCCCCCCCCCCC [Compound 10, (2R,3S,5R)-5-(6-amino-2-fluoro-9H-purin-9-yl)-2-ethynyl-2-((tetradecanoyloxy)methyl)tetrahydrofuran-3-yl tetradecanoate] | > 50 µM |  |
| 6.6 µM (≈ 2.86 µg/mL) | 0.007 µM | C#C[C@]1(COC(=O)C(C)C)O[C@@H](n2cnc3c(N)nc(F)nc32)C[C@@H]1OC(=O)C(C)C [Compound 1, (2R,3S,5R)-5-(6-amino-2-fluoro-9H-purin-9-yl)-2-ethynyl-2-((isobutyryloxy)methyl)tetrahydrofuran-3-yl isobutyrate] | 37.3 µM |  |

| Compound | solubility kinetic at 24 h [1] | EC50 (HIV-1 (IIIB); [3]) | CC50 at 5 days [2] | EC50 (HIV-1 (IIIB); Human immunodeficiency virus 1, IIIB, MT4, 120 h) |
| --- | --- | --- | --- | --- |
| C#C[C@]1(COC(=O)CC(C)(C)c2c(C)cc(C)cc2OC(C)=O)O[C@@H](n2cnc3c(N)nc(F)nc32)C[C@@H]1OC(=O)CC(C)(C)c1c(C)cc(C)cc1OC(C)=O [Compound 16, ((2R,3S,5R)-3-((3-(2-acetoxy-4,6-dimethylphenyl)-3-methylbutanoyl)oxy)-5-(6-amino-2-fluoro-9H-purin-9-yl)-2-ethynyltetrahydrofuran-2-yl)methyl 3-(2-acetoxy-4,6-dimethylphenyl)-3-methylbutanoate] | < 1 µM | 0.01 µM | 15.7 µM |  |
| C#C[C@]1(COC(=O)CC(C)(C)c2c(C)cc(C)cc2OC(C)=O)O[C@@H](n2cnc3c(N)nc(F)nc32)C[C@@H]1O [Compound 14, ((2R,3S,5R)-5-(6-amino-2-fluoro-9H-purin-9-yl)-2-ethynyl-3-hydroxytetrahydrofuran-2-yl)methyl 3-(2-acetoxy-4,6-dimethylphenyl)-3-methylbutanoate] | 37 µM (≈ 20 µg/mL) | 0.004 µM | > 21.6 µM |  |
| C#C[C@]1(CO)O[C@@H](n2cnc3c(N)nc(F)nc32)C[C@@H]1OC(=O)CC(C)(C)c1c(C)cc(C)cc1OC(C)=O [Compound 15, (2R,3S,5R)-5-(6-amino-2-fluoro-9H-purin-9-yl)-2-ethynyl-2-(hydroxymethyl)tetrahydrofuran-3-yl 3-(2-acetoxy-4,6-dimethylphenyl)-3-methylbutanoate] | 25.1 µM (≈ 13.5 µg/mL) | 0.003 µM | 11.8 µM |  |
